Reference: publication PMC3685175 (Journal of medicinal chemistry, 2013)

What was measured:
Assay type in all cases: biochemical
P450 1A1 = target: T1, P450 1A1 (Homo sapiens, UniProt P04798)
T1 sequence (P04798 1-512): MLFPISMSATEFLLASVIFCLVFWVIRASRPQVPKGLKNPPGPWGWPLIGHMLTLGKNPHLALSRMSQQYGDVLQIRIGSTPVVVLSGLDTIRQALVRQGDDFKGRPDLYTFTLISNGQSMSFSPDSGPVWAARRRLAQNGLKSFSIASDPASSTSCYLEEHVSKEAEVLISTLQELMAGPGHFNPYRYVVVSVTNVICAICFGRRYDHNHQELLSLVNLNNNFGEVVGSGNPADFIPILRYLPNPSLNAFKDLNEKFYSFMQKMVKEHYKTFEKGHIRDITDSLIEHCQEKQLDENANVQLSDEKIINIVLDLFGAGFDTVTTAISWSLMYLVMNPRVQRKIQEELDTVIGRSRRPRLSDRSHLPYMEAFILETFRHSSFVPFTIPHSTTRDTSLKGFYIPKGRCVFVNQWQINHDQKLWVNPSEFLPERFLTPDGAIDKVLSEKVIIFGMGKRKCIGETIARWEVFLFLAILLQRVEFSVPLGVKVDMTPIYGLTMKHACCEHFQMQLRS

P450 1A2 = target: T2, P450 1A2 (Homo sapiens, UniProt P05177)
T2 sequence (P05177 1-516): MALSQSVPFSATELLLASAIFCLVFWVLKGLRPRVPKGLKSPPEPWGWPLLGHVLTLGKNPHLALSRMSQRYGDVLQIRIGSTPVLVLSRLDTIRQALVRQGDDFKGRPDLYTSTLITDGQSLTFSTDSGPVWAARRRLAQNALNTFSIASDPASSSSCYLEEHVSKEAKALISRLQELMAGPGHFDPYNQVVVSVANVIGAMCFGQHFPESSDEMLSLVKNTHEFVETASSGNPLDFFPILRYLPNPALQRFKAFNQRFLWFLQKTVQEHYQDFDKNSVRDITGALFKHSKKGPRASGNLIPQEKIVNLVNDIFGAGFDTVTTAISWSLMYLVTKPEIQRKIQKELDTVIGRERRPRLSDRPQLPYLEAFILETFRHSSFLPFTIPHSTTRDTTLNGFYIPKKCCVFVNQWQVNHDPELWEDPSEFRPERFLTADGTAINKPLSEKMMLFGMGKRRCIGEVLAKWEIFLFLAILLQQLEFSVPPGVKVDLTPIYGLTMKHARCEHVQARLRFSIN

P450 1B1 = target: T3, P450 1B1 (Homo sapiens, UniProt Q16678); conditions: from IC50 values
T3 sequence (Q16678 1-543): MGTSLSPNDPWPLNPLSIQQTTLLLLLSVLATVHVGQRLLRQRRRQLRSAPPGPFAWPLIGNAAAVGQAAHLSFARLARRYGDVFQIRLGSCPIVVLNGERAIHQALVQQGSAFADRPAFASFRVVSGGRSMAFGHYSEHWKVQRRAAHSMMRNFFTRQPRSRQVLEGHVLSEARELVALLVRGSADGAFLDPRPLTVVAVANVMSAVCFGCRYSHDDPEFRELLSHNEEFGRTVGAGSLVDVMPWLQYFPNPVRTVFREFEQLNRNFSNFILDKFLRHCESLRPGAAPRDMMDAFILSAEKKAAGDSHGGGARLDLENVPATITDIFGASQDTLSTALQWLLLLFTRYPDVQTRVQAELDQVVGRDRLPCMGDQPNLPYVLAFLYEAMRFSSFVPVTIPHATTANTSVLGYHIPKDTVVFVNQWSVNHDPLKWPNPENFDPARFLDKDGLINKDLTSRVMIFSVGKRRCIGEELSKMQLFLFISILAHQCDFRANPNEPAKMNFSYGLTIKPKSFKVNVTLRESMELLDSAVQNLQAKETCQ

[1] = Kitz-Wilson plot, mechanism-based inactivation

Row | KI, P450 1A1 (P450 1A1; [1]) | mechanism of inhibition of P450 1A1 (P450 1A1; in words) | KI, P450 1A2 (P450 1A2; [1]) | mechanism of inhibition of P450 1A2 (P450 1A2; in words) | effect on P450 1A1 (P450 1A1; 0.1 μM inhibitor, in words) | effect on P450 1A2 (P450 1A2; 0.1 μM inhibitor, in words) | inhibition of P450 1A2 (P450 1A2; in words (conclusion)) | selectivity for P450 1B1 over P450 1A1 (P450 1B1) | selectivity for P450 1B1 over P450 1A2 (P450 1B1) | SMILES
1 | 130 nM | mechanism-based inhibitor | 71 nM | mechanism-based inhibitor |  |  |  |  |  | C#CCOc1cccc(-c2cc(=O)c3c(O)cccc3o2)c1 [5H3′FPE, 5-Hydroxy-2-(3-(propargyloxy)phenyl)-4H-chromen-4-one]
2 |  |  |  |  | without having any significant effect | without having any significant effect | no inhibition | 120 times | more than 250 times | C#CCOc1ccc(-c2cc(=O)c3c(O)cccc3o2)cc1 [5H4′FPE, 5-Hydroxy-2-(4-(propargyloxy)phenyl)-4H-chromen-4-one]
